Converted amounts (≈) assume the structure as drawn. Values belong to the compound of their own block, whether it stands above or below them. The source made the active and inactive calls. No cut-off for these calls is given here.
Assays:
Mus musculus = assay: Antiangiogenic activity in C57BL/6 mouse laser-induced choroidal neovascularization model assessed as inhibition of neovascularization administered 1% suspension using 3.5 uL topical drop to both eyes every 3 hrs for 9 hrs by microscopic analysis
[1] = biological target: Vascular endothelial growth factor receptor 2 (Homo sapiens, UniProt P35968)
Description: Inhibition of KDR (unknown origin) expressed in mouse Ba/F3 cells

[2] = Intrinsic clearance in rat liver microsomes at 1 uM after 5 to 30 mins by LC-MS/MS analysis; assay type: ADME, microsome; settings: read-out: CLH
Rattus norvegicus [3] = assay: Antiangiogenic activity in Brown Norway rat laser-induced choroidal neovascularization model assessed as inhibition of neovascularization administered 0.09% suspension using 4 uL topical drop to both eyes every 3 hrs for 9 hrs by microscopic analysis; assay type: functional
[4] = Solubility of compound at pH 7.4; assay type: physicochemical; settings: buffer
Rattus norvegicus [5] = assay: Antiangiogenic activity in Brown Norway rat laser-induced choroidal neovascularization model assessed as inhibition of neovascularization administered 0.1% solution to both eyes every 3 hrs for 9 hrs by microscopic analysis; assay type: functional
[6] = biological target: Platelet-derived growth factor receptor alpha (Homo sapiens, UniProt P16234); assay: Inhibition of human PDGFRalpha
Sequence of Platelet-derived growth factor receptor alpha (P16234 whole entry): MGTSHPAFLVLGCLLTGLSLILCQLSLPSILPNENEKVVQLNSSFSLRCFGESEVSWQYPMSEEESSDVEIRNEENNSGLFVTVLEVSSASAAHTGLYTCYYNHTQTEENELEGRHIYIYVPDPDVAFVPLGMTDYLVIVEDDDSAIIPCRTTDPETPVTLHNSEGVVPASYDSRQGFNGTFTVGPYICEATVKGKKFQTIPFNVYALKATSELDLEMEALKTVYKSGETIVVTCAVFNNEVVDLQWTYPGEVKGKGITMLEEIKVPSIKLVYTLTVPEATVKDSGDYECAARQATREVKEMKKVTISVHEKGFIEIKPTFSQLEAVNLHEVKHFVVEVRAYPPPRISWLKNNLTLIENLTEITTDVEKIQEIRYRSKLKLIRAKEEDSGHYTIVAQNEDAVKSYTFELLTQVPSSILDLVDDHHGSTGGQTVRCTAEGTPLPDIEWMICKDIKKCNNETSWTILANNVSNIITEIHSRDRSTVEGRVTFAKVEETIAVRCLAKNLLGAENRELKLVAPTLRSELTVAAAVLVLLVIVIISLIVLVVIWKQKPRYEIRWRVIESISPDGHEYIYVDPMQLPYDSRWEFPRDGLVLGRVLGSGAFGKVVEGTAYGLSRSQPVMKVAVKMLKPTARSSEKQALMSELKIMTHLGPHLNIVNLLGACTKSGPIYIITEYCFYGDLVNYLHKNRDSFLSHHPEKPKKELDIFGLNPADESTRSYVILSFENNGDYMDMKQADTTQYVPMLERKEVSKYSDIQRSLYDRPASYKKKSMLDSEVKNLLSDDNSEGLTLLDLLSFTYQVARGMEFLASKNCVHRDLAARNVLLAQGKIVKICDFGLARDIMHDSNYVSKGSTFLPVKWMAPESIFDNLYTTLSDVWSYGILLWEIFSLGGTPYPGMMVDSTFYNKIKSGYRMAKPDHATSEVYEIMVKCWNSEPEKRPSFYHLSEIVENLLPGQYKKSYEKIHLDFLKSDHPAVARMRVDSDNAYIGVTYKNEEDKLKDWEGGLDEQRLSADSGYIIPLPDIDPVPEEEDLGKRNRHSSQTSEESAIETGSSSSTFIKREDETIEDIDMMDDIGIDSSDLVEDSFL

[7] = biological target: Proto-oncogene tyrosine-protein kinase receptor Ret (Homo sapiens, UniProt P07949); assay: Inhibition of human RET
Sequence of Proto-oncogene tyrosine-protein kinase receptor Ret (P07949 whole entry): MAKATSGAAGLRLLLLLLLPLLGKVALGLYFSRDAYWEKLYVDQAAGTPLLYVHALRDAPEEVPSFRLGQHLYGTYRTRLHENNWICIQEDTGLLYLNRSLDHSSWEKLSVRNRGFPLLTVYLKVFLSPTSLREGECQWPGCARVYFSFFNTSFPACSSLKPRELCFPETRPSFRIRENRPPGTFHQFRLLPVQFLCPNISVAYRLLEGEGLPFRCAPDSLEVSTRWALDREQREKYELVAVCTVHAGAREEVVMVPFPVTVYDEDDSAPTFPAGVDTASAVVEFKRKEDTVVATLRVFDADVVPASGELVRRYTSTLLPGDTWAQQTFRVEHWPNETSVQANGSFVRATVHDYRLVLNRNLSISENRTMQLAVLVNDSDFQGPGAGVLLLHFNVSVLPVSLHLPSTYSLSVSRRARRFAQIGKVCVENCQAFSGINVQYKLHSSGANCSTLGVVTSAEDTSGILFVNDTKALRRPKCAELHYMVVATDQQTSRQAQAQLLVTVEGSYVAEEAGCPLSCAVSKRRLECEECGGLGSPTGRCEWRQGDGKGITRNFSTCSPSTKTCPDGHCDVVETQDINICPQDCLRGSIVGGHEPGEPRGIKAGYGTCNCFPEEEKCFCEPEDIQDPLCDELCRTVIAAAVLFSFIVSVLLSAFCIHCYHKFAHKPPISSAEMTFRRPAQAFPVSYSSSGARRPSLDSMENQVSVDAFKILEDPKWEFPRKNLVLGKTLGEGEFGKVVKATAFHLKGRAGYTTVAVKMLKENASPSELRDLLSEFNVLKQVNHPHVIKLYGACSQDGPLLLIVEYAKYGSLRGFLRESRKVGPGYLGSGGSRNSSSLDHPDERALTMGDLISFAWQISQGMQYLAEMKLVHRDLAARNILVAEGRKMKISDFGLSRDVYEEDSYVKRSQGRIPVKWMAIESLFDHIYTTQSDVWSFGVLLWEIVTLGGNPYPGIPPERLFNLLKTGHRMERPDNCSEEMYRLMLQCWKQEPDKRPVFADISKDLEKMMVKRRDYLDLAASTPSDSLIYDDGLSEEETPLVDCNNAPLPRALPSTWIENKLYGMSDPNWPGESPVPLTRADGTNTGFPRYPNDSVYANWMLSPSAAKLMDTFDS

[8] = biological target: Mast/stem cell growth factor receptor Kit (Homo sapiens, UniProt P10721); assay: Inhibition of human KIT
Sequence of Mast/stem cell growth factor receptor Kit (P10721 whole entry): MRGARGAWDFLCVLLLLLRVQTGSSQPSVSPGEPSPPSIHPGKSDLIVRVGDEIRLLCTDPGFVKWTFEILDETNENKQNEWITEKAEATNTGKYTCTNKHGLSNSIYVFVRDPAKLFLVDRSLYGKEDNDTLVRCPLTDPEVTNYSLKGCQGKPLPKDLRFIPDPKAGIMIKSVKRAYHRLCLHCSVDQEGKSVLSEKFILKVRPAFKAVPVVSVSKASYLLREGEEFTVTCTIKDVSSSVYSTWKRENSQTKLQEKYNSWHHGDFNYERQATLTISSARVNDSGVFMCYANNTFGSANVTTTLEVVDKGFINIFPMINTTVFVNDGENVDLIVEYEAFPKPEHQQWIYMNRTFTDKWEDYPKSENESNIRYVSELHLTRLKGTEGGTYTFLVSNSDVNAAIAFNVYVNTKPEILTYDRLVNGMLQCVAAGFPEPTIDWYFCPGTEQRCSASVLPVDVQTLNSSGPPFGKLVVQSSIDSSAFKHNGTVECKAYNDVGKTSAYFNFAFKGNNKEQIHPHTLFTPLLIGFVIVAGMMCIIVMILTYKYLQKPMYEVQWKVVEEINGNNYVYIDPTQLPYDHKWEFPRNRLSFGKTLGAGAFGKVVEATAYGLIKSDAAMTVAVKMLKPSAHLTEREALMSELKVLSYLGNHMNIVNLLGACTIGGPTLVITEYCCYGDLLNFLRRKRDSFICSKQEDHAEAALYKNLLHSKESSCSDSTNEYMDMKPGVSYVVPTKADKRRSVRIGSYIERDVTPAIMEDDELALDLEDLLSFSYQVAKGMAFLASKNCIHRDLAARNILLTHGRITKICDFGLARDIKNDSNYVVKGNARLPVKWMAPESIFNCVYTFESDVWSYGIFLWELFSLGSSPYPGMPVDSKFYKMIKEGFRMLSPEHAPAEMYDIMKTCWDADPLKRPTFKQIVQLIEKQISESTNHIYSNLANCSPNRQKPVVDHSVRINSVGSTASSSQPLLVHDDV

[9] = biological target: Tyrosine-protein kinase Lyn (Homo sapiens, UniProt P07948); assay: Inhibition of human LYN
Sequence of Tyrosine-protein kinase Lyn (P07948 whole entry): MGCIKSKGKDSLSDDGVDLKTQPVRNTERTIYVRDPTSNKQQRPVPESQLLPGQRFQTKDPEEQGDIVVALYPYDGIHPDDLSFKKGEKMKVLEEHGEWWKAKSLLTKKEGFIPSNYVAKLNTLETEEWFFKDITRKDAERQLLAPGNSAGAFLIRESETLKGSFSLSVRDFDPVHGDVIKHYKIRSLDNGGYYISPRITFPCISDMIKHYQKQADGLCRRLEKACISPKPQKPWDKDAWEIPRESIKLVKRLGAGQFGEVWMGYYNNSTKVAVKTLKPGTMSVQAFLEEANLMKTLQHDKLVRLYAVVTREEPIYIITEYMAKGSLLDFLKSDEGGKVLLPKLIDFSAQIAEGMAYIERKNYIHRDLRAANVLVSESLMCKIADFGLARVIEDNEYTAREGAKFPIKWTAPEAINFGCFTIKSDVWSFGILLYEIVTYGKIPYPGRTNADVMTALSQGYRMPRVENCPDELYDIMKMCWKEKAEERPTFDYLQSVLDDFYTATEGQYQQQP

[10] = biological target: Tyrosine-protein kinase ABL1 (Homo sapiens, UniProt P00519); assay: Inhibition of human ABL
Sequence of Tyrosine-protein kinase ABL1 (P00519 whole entry): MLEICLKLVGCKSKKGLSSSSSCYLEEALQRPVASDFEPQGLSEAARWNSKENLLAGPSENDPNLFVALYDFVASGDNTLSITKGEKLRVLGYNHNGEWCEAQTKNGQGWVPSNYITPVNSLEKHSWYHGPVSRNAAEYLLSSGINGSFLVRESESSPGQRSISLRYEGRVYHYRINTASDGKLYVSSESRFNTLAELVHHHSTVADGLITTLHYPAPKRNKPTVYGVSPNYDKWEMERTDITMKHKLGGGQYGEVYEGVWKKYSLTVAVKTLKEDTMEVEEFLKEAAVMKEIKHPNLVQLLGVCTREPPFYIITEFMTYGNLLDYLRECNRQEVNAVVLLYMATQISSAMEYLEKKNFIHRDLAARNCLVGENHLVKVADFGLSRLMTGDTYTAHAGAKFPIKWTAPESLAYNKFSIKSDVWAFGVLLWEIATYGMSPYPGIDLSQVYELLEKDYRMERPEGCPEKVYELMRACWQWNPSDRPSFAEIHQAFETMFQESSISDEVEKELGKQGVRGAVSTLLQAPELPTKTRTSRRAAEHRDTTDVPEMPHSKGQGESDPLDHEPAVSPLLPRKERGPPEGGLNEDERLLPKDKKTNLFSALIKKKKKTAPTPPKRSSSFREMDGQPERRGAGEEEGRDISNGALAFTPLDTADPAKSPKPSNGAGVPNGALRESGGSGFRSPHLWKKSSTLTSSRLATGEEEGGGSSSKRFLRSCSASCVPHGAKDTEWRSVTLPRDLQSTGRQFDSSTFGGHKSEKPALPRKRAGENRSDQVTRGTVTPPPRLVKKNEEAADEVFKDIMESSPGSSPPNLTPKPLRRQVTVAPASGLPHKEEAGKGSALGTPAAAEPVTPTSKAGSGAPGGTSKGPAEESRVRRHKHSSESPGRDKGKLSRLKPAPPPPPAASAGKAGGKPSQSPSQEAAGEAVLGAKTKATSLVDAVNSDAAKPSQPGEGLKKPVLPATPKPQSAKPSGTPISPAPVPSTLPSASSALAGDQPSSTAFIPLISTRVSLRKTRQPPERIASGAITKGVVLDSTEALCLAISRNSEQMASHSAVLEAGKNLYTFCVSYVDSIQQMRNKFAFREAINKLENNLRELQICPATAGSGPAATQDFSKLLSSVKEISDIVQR

[11] = AUC (0 to last) in posterior eye cup of Brown Norway rat administered 0.3% suspension using 4 uL topical drop to both eyes as single dose by LC-MS/MS analysis; assay type: ADME; settings: topical or ocular, 4 uL of 0.3% suspension per eye
[12] = Cmax in posterior eye cup of Brown Norway rat administered 0.3% suspension using 4 uL topical drop to both eyes as single dose by LC-MS/MS analysis; assay type: ADME; settings: topical or ocular, 4 uL of 0.3% suspension per eye
[13] = AUC (0 to last) in retina of Brown Norway rat administered 0.3% suspension using 4 uL topical drop to both eyes as single dose by LC-MS/MS analysis; assay type: ADME, tissue-based; set-up: dose 4 uL, time 0 - last, route ophthalmic; settings: topical or ocular, 4 uL of 0.3% suspension per eye
[14] = Cmax in retina of Brown Norway rat administered 0.3% suspension using 4 uL topical drop to both eyes as single dose by LC-MS/MS analysis; assay type: ADME, tissue-based; set-up: dose 4 uL, route ophthalmic; settings: topical or ocular, 4 uL of 0.3% suspension per eye
[15] = AUC (0 to last) in plasma of Brown Norway rat administered 0.3% suspension using 4 uL topical drop to both eyes as single dose by LC-MS/MS analysis; assay type: ADME; set-up: dose 4 uL, time 0 - last, route ophthalmic; settings: topical or ocular, 4 uL of 0.3% suspension per eye
[16] = Cmax in plasma of Brown Norway rat administered 0.3% suspension using 4 uL topical drop to both eyes as single dose by LC-MS/MS analysis; assay type: ADME; set-up: dose 4 uL, route ophthalmic; settings: topical or ocular, 4 uL of 0.3% suspension per eye
[17] = AUC (0 to last) in posterior eye cup of Brown Norway rat administered 0.3% suspension using 4 uL topical drop to both eyes every 3 hrs for 9 hrs over 10 days and single drop to each eye on day 11 by LC-MS/MS analysis; assay type: ADME; settings: topical or ocular, 4 uL of 0.3% suspension per eye
[18] = Cmax in posterior eye cup of Brown Norway rat administered 0.3% suspension using 4 uL topical drop to both eyes every 3 hrs for 9 hrs over 10 days and single drop to each eye on day 11 by LC-MS/MS analysis; assay type: ADME; settings: topical or ocular, 4 uL of 0.3% suspension per eye
[19] = AUC (0 to last) in retina of Brown Norway rat administered 0.3% suspension using 4 uL topical drop to both eyes every 3 hrs for 9 hrs over 10 days and single drop to each eye on day 11 by LC-MS/MS analysis; assay type: ADME; settings: topical or ocular, 4 uL of 0.3% suspension per eye
[20] = Cmax in retina of Brown Norway rat administered 0.3% suspension using 4 uL topical drop to both eyes every 3 hrs for 9 hrs over 10 days and single drop to each eye on day 11 by LC-MS/MS analysis; assay type: ADME; settings: topical or ocular, 4 uL of 0.3% suspension per eye
[21] = AUC (0 to last) in plasma of Brown Norway rat administered 0.3% suspension using 4 uL topical drop to both eyes every 3 hrs for 9 hrs over 10 days and single drop to each eye on day 11 by LC-MS/MS analysis; assay type: ADME; settings: topical or ocular, 4 uL of 0.3% suspension per eye
[22] = Cmax in plasma of Brown Norway rat administered 0.3% suspension using 4 uL topical drop to both eyes every 3 hrs for 9 hrs over 10 days and single drop to each eye on day 11 by LC-MS/MS analysis; assay type: ADME; settings: topical or ocular, 4 uL of 0.3% suspension per eye
[23] = AUC (0 to last) in cynomolgus monkey plasma administered 0.5% suspension using 30 uL topical drop to both eyes as single dose by LC-MS/MS analysis; assay type: ADME, Macaca fascicularis; set-up: dose 30 uL, route ophthalmic, time 0 - last; settings: topical or ocular, 30 uL of 0.5% suspension per eye
[24] = Cmax in cynomolgus monkey plasma administered 0.5% suspension using 30 uL topical drop to both eyes as single dose by LC-MS/MS analysis; assay type: ADME, Macaca fascicularis; set-up: dose 30 uL, route ophthalmic; settings: topical or ocular, 30 uL of 0.5% suspension per eye
[25] = Plasma concentration in cynomolgus monkey administered 0.5% suspension using 30 uL topical drop to both eyes as single dose measured over 24 hrs by LC-MS/MS analysis; assay type: ADME, cell-free, Macaca fascicularis; settings: topical or ocular, 30 uL of 0.5% suspension per eye
[26] = Tmax in cynomolgus monkey plasma administered 0.5% suspension using 30 uL topical drop to both eyes as single dose by LC-MS/MS analysis; assay type: ADME, Macaca fascicularis; settings: topical or ocular, 30 uL of 0.5% suspension per eye
[27] = AUC (0 to last) in cynomolgus monkey plasma administered 0.5% suspension using 30 uL topical drop to both eyes every 3 hrs for 9 hrs over 5 days and single drop to each eye on day 6 by LC-MS/MS analysis; assay type: ADME, Macaca fascicularis; settings: topical or ocular, 30 uL of 0.5% suspension per eye
[28] = Cmax in cynomolgus monkey plasma administered 0.5% suspension using 30 uL topical drop to both eyes every 3 hrs for 9 hrs over 5 days and single drop to each eye on day 6 by LC-MS/MS analysis; assay type: ADME, Macaca fascicularis; settings: topical or ocular, 30 uL of 0.5% suspension per eye
Plasma = assay: Plasma concentration in cynomolgus monkey administered 0.5% suspension using 30 uL topical drop to both eyes every 3 hrs for 9 hrs over 5 days and single drop to each eye on day 6 by LC-MS/MS analysis; assay type: ADME, cell-free, Macaca fascicularis; settings: topical_or_ocular
[29] = Tmax in cynomolgus monkey plasma administered 0.5% suspension using 30 uL topical drop to both eyes every 3 hrs for 9 hrs over 5 days and single drop to each eye on day 6 by LC-MS/MS analysis; assay type: ADME, Macaca fascicularis; settings: topical or ocular, 30 uL of 0.5% suspension per eye
Cynomolgus monkey [30] = assay: Toxicity in cynomolgus monkey anterior region of eye administered 0.5% suspension using 30 uL topical drop to both eyes every 3 hrs for 9 hrs over 5 days by slit lamp biomicroscopic method; set-up: species or system Macaca fascicularis; settings: in vivo, topical_or_ocular
Cynomolgus monkey [31] = assay: Toxicity in cynomolgus monkey adnexa region of eye administered 0.5% suspension using 30 uL topical drop to both eyes every 3 hrs for 9 hrs over 5 days by slit lamp biomicroscopic method; set-up: species or system Macaca fascicularis; settings: in vivo, topical_or_ocular
Cynomolgus monkey [32] = assay: Toxicity in cynomolgus monkey ocular fundus administered 0.5% suspension using 30 uL topical drop to both eyes every 3 hrs for 9 hrs over 5 days by indirect ophthalmoscopic method; set-up: species or system Macaca fascicularis; settings: in vivo, topical_or_ocular
Rattus norvegicus [33] = assay: Antiangiogenic activity in Brown Norway rat laser-induced choroidal neovascularization model assessed as inhibition of neovascularization administered 1% suspension using 4 uL topical drop to both eyes every 3 hrs for 9 hrs by microscopic analysis

microsomal CLint at 1 µM [2]: 91 µL/min/mg
SMILES: CNCc1cc(Oc2ccc3c(ccn3C(=O)Nc3cc(C4(C)CC4)on3)c2)ncn1

solubility [4]: 0.6 µM (≈ 0.284 µg/mL)
IC50 [6]: < 500 nM
IC50 [7]: < 500 nM
IC50 [8]: < 500 nM
IC50 [9]: < 500 nM
IC50 [10]: < 500 nM
AUC(0-t) [11]: 8.97 µM·h
Cmax [12]: 2860 nM
AUC(0-t) [13]: 0.22 µM·h
Cmax [14]: 150 nM
AUC(0-t) [15]: 0.449 µM·h
Cmax [16]: 51.6 nM
AUC(0-t) [17]: 29.5 µM·h
Cmax [18]: 4730 nM
AUC(0-t) [19]: 0.764 µM·h
Cmax [20]: 138 nM
AUC(0-t) [21]: 0.923 µM·h
Cmax [22]: 78.6 nM
AUC(0-t) [23]: 1.07 µM·h
Cmax [24]: 65.8 nM
concentration at 24 h [25]: 64 nM
Tmax [26]: 11 h
AUC(0-t) [27]: 2.51 µM·h
Cmax [28]: 228 nM
concentration (Plasma): 84.4 nM
Tmax [29]: 3 h
SMILES: CC(=O)N1Cc2ncnc(Oc3ccc4c(ccn4C(=O)Nc4cc(C5CC5)on4)c3)c2C[C@@H]1C
inhibition (INH) (Rattus norvegicus [3]): 50%
inhibition (INH) (Rattus norvegicus [5]): 55%
Activity (Cynomolgus monkey [30]): Non-Toxic
Activity (Cynomolgus monkey [31]): Non-Toxic
Activity (Cynomolgus monkey [32]): Non-Toxic

microsomal CLint at 1 µM [2]: 114 µL/min/mg
SMILES: CNCc1cc(Oc2ccc3c(ccn3C(=O)Nc3cc(C(C)C)on3)c2)ncn1

The remaining lines, values behind:

SMILES: CC(C)(CO)c1cc(NC(=O)n2ccc3cc(Oc4ncnc5c4CNC5)ccc32)no1
inhibition (Mus musculus): inactive

SMILES: O=C(Nc1cccc(C(F)(F)F)c1)c1cccc2cc(Oc3cc(CO)ncn3)ccc12 [BFH-772]
IC50 [1]: 1.3 nM

SMILES: CC(=O)N1Cc2ncnc(Oc3ccc4c(ccn4C(=O)Nc4cc(C5CC5)on4)c3)c2C1
inhibition (Rattus norvegicus [33]): inactive

SMILES: O=C(Nc1cc(C2CC2)on1)n1ccc2cc(Oc3cc(CO)ncn3)ccc21
inhibition (Mus musculus): inactive

From ChEMBL document CHEMBL4052831, “The Discovery of N-(1-Methyl-5-(trifluoromethyl)-1H-pyrazol-3-yl)-5-((6- ((methylamino)methyl)pyrimidin-4-yl)oxy)-1H-indole-1-carboxamide (Acrizanib), a VEGFR-2 Inhibitor Specifically Designed for Topical Ocular Delivery, as a Therapy for Neovascular Age-Related Macular Degeneration” (J Med Chem, 2018)
